{
  "source": "patent US20020169126A1",
  "about": "“Compositions and methods for inactivating the Akt oncogene and/or activating the p38 pro-apoptotic gene” (priority 2001, published 2002)",
  "key": {"[1]": {"details": "cited from earlier work; for absorption: oral; for dose excreted or recovered in the urine: unchanged, intact or active drug"}, "[2]": {"details": "oral and parental routes; cited from earlier work"}, "[3]": {"tested_on": "p38", "assay": "Relative p38 activity (p38-p versus p38-c) after blocking Akt", "format": "cell-based, human", "details": "0.1 μM, 4 hours", "protocol": "(§1) In order to determine the relationships between the Akt pathway and the p38 pathway, experiments were performed with inhibitors of both pathways. Wortmannin was used to inhibit the Akt pathway. Wortmannin is a drug that inhibits P13K which is a signal protein that is directly upstream of Akt in the Akt pathway. A synthetic compound, SB203580, was used as a p38 specific inhibitor. Cells were serum starved overnight and were then treated with either SB203580 (20 μM) or Wortmannin (0.1 μM) for 4 hours, 8, hours, 16 hours, 24 hours, 36 hours. When p38 activity was blocked by SB203580 for 8 hours, the Akt activity was increased by approximately 3 fold in E1A stable expressing MDA-MB-231 cells. Whereas, when Akt activity was blocked by Wortmannin for 4 hours, the p38 activity was enhanced to approximately 6 fold. The relative p38 activity (p38-p versus p38-c) and relative Akt activity (Akt-p versus Akt-c) are illustrated in FIG. 2A and FIG. 2B respectively."}, "[4]": {"tested_on": "breast cancer cells", "assay": "Sensitization to Taxol-mediated cytotoxicity", "format": "cell-based, human", "details": "blocking p38 activity, together with constitutively active Akt", "protocol": "The indirect measure of the viable cells after exposure to Taxol using the metabolic conversion of tetrazolium salt (MTT) to formazan was used. Cells (3×10^3/well) were seeded in triplicate in 96-well culture plates in 0.2 ml of culture medium and allowed to adhere for 24 h. After exposure to Taxol for a certain period of time, 20 μl of MTT was then added to each well. Cells were cultured for an additional 2 h, and followed by addition of 100 μl of extraction buffer (20% SDS in 50% N,N-dimethyl formamide, pH 4.7). The cells were incubated overnight at 37° C., and the plates were absorbance at 570 nm was measured."}, "[5]": {"tested_on": "Akt", "assay": "Relative Akt activity (Akt-p versus Akt-c) after blocking p38", "format": "cell-based, human", "details": "20 μM, 8 hours, E1A stable expressing MDA-MB-231 cells", "protocol": "as §1"}, "[6]": {"tested_on": "MDA-MB-231 cells", "assay": "Taxol treatment of 231 vector and 231-E1A tumors in nude mice", "format": "in vivo", "text": "To establish orthotopic breast cancer model in nude mice, human MDA-MB-231 cells were inoculated into the mammary fat pad (m.f.p.) of mouse. Tumor size were monitored and caculated on a weekly basis.\nExpression of E1A enhanced the anti-tumor effect of the chemotherapeutic drug Taxol in nude mice in vivo and prolonged animal survival rate. […] TUNEL labeling of apoptotic cells in the tumor tissues with or without treatment of Taxol also confirms this. The treatment groups included the SN vehicle, SN-liposome-E1A, Taxol alone, and Taxol plus SN-E1A. At least 7 animals were included in each group."}},
  "note": "Counter-ions that a name gives are not always drawn. Starred links: 1 amine or outer side, 2 acyl side, 3 side chain; linkers in the order of their positions; H or OH if unused. Positions of bridges follow the written chain, without caps; N, C: chain ends. Non-standard residues stand in square brackets, D forms with d. Residues, ends and D or L forms follow the SMILES beside them. Chains are numbered I, II in the order given. Actinocin(9to1) = Cc1c2oc3c(C)ccc(C(=O)[*:1])c3nc-2c(C(=O)[*:2])c(N)c1=O; NMeV = CN[C@H](C(=O)O)C(C)C; Sar = CNCC(=O)O",
  "data": [
    {"smiles": "O=C(O)CCCc1ccc(N(CCCl)CCCl)cc1", "note": "[Chlorambucil, 4-[bis(2-chlorethyl)amino] benzenebutanoic acid]", "values": [
      {"measurement": "absorption", "setting": "[1]", "result": "rapidly and completely absorbed from the gastrointestinal tract"}
    ]},
    {"smiles": "O=P1(N(CCCl)CCCl)NCCCO1", "note": "(stereo not shown) [Cyclophosphamide, 2H -1,3,2-Oxazaphosphorin-2-amine, N,N-bis(2-chloroethyl)tetrahydro-, 2-oxide, monohydrate]", "values": [
      {"measurement": "local tolerance", "setting": "[2]", "result": "does not cause local vesication, necrosis, phlebitis or even pain"}
    ]},
    {"smiles": "COc1cccc2c1C(=O)c1c(O)c3c(c(O)c1C2=O)C[C@@](O)(C(C)=O)C[C@@H]3O[C@H]1C[C@H](N)[C@H](O)[C@H](C)O1", "note": "[Daunorubicin, 5,12-Naphthacenedione, (8S-cis)-8-acetyl-10-[(3-amino-2,3,6-trideoxy-a-L-lyxo-hexanopyranosyl)oxy]-7,8,9,10-tetrahydro-6,8,11-trihydroxy-10-methoxy-, hydrochloride]", "values": [
      {"measurement": "absorption", "setting": "[1]", "result": "poor"}
    ]},
    {"smiles": "COc1cccc2c1C(=O)c1c(O)c3c(c(O)c1C2=O)C[C@@](O)(C(=O)CO)C[C@@H]3O[C@H]1C[C@H](N)[C@H](O)[C@H](C)O1", "note": "[Doxorubicin, 5,12-Naphthacenedione, (8s-cis)-10-[(3-amino-2,3,6-trideoxy-a-L-lyxo-hexopyranosyl)oxy]-7,8,9,10-tetrahydro-6,8,11-trihydroxy-8-(hydroxyacetyl)-1-methoxy-hydrochloride]", "values": [
      {"measurement": "absorption", "setting": "[1]", "result": "absorbed poorly"}
    ]},
    {"smiles": "Cc1c2oc3c(C)ccc(C(=O)N[C@@H]4C(=O)N[C@H](C(C)C)C(=O)N5CCC[C@H]5C(=O)N(C)CC(=O)N(C)[C@@H](C(C)C)C(=O)O[C@@H]4C)c3nc-2c(C(=O)N[C@@H]2C(=O)N[C@H](C(C)C)C(=O)N3CCC[C@H]3C(=O)N(C)CC(=O)N(C)[C@@H](C(C)C)C(=O)O[C@@H]2C)c(N)c1=O", "note": "[Actinomycin D] (I: T[dV]P[Sar][NMeV] / II: T[dV]P[Sar][NMeV]; ester I:1-I:C, II:1-II:C; linker I:N-II:N via Actinocin(9to1))", "values": [
      {"measurement": "excreted intact into the bile", "setting": "[1]; in vivo", "result": "Half of the dose"},
      {"measurement": "dose excreted or recovered in the urine", "setting": "[1]", "result": 10, "unit": "%"}
    ]},
    {"smiles": "COC[C@H]1OC(=O)c2coc3c2[C@@]1(C)C1=C(C3=O)[C@@H]2CCC(=O)[C@@]2(C)C[C@H]1OC(C)=O", "note": "[Wortmannin]", "values": [
      {"measurement": "enhancement of p38 activity", "setting": "[3]", "result": "approximately 6 fold"}
    ]},
    {"smiles": "CC[C@]1(O)C[C@@H]2CN(CCc3c([nH]c4ccccc34)[C@@](C(=O)OC)(c3cc4c(cc3OC)N(C)[C@H]3[C@@](O)(C(=O)OC)[C@H](OC(C)=O)[C@]5(CC)C=CCN6CC[C@]43[C@@H]65)C2)C1", "note": "[Vinblastine]", "values": [
      {"measurement": "absorption", "setting": "[1]", "result": "Unpredictable absorption"},
      {"measurement": "dose excreted or recovered in the urine", "setting": "[1]", "result": "Approximately 15%"}
    ]},
    {"smiles": "N.N.[Cl][Pt][Cl]", "note": "[Cisplatin]", "values": [
      {"measurement": "absorption", "setting": "[1]", "result": "not absorbed orally"}
    ]},
    {"smiles": "CC[C@]1(O)C[C@H]2CN(CCc3c([nH]c4ccccc34)[C@@](C(=O)OC)(c3cc4c(cc3OC)N(C=O)[C@H]3[C@@](O)(C(=O)OC)[C@H](OC(C)=O)[C@]5(CC)C=CCN6CC[C@]43[C@@H]65)C2)C1", "note": "[Vincristine]", "values": [
      {"measurement": "absorption", "setting": "[1]", "result": "Unpredictable absorption"}
    ]},
    {"smiles": "C[S+]([O-])c1ccc(-c2nc(-c3ccncc3)c(-c3ccc(F)cc3)[nH]2)cc1", "note": "(stereo not shown) [SB203580]", "values": [
      {"measurement": "effect on the ability of E1A to sensitize cells to Taxol-mediated cytotoxicity", "setting": "[4]", "result": "partially abrogated"},
      {"measurement": "increase of Akt activity", "setting": "[5]", "result": "approximately 3 fold"}
    ]},
    {"smiles": "CC(=O)O[C@H]1C(=O)[C@@]2(C)[C@H]([C@H](OC(=O)c3ccccc3)[C@]3(O)C[C@H](OC(=O)[C@H](O)[C@@H](NC(=O)c4ccccc4)c4ccccc4)C(C)=C1C3(C)C)[C@]1(OC(C)=O)CO[C@@H]1C[C@@H]2O", "note": "[Taxol]", "values": [
      {"measurement": "therapeutic effect of Taxol in E1A tumors versus vector tumors", "setting": "[6]; 231-E1A cells", "result": "more dramatic therapeutic effect"},
      {"measurement": "tumor growth under Taxol treatment", "setting": "[6]; 231 vector and 231-E1A tumors", "result": "repressed tumor growth"}
    ]},
    {"smiles": "CO[C@@]12[C@H](COC(N)=O)C3=C(C(=O)C(C)=C(N)C3=O)N1C[C@@H]1N[C@@H]12", "note": "[Mitomycin]", "values": [
      {"measurement": "dose excreted or recovered in the urine", "setting": "[1]", "result": "Approximately 10%"}
    ]}
  ]
}
